This note sets out measurements from ChEMBL document CHEMBL1158404, “Antifungal activity of alkyl and heterocyclic aza-derivatives of gossypol as well as their complexes with NaClO4 against Fusarium oxysporum f. sp. lupini” (2009).

Holding throughout (type): functional
Assay [1] concerns Fusarium oxysporum. The assay is described as follows: Antifungal activity against Fusarium oxysporum f. sp. lupini at 20 ug/ml after 48 hrs.
The test system of assay [2] is Fusarium oxysporum. Kind of assay: Antifungal activity against Fusarium oxysporum f. sp. lupini at 20 ug/ml after 96 hrs.
Assay [3] has as its system Fusarium oxysporum. The assay is described as follows: Antifungal activity against Fusarium oxysporum f. sp. lupini at 20 ug/ml after 144 hrs.
For assay [4], the system named is Fusarium oxysporum. The assay is described as follows: Antifungal activity against Fusarium oxysporum f. sp. lupini at 20 ug/ml after 192 hrs.
Assay [5] has as its system Fusarium oxysporum. Kind of assay: Antifungal activity against Fusarium oxysporum f. sp. lupini at 20 ug/ml after 192 hrs relative to control. As to conditions: read-out: GI.
In assay [6] the test system is Fusarium oxysporum. The assay is described as follows: Antifungal activity against Fusarium oxysporum f. sp. lupini at 1 ug/ml after 48 hrs.
Assay [7] concerns Fusarium oxysporum. The assay is described as follows: Antifungal activity against Fusarium oxysporum f. sp. lupini at 1 ug/ml after 96 hrs.
The subject of assay [8] is Fusarium oxysporum. The assay is described as follows: Antifungal activity against Fusarium oxysporum f. sp. lupini at 1 ug/ml after 144 hrs.
In assay [9] the test system is Fusarium oxysporum. The assay is described as follows: Antifungal activity against Fusarium oxysporum f. sp. lupini at 1 ug/ml after 192 hrs.
For assay [10], the system named is Fusarium oxysporum. The assay is described as follows: Antifungal activity against Fusarium oxysporum f. sp. lupini at 1 ug/ml after 192 hrs relative to control. As to conditions: read-out: GI.
The test system of assay [11] is Fusarium oxysporum. The assay is described as follows: Antifungal activity against Fusarium oxysporum f. sp. lupini at 0.5 ug/ml after 48 hrs.
The test system of assay [12] is Fusarium oxysporum. Kind of assay: Antifungal activity against Fusarium oxysporum f. sp. lupini at 0.5 ug/ml after 96 hrs.
The test system of assay [13] is Fusarium oxysporum. The assay is described as follows: Antifungal activity against Fusarium oxysporum f. sp. lupini at 0.5 ug/ml after 144 hrs.
In assay [14] the test system is Fusarium oxysporum. The assay is described as follows: Antifungal activity against Fusarium oxysporum f. sp. lupini at 0.5 ug/ml after 192 hrs.
The subject of assay [15] is Fusarium oxysporum. The assay is described as follows: Antifungal activity against Fusarium oxysporum f. sp. lupini at 0.5 ug/ml after 192 hrs relative to control. The following applies: read-out: GI.
Assay [16] relates to Fusarium oxysporum. Kind of assay: Antifungal activity against Fusarium oxysporum f. sp. lupini at 0.1 ug/ml after 48 hrs.
Assay [17] deals with Fusarium oxysporum. Kind of assay: Antifungal activity against Fusarium oxysporum f. sp. lupini at 0.1 ug/ml after 96 hrs.
Assay [18] relates to Fusarium oxysporum. Kind of assay: Antifungal activity against Fusarium oxysporum f. sp. lupini at 0.1 ug/ml after 144 hrs.
Assay [19] concerns Fusarium oxysporum. The assay is described as follows: Antifungal activity against Fusarium oxysporum f. sp. lupini at 0.1 ug/ml after 192 hrs.
Assay [20] deals with Fusarium oxysporum. The assay is described as follows: Antifungal activity against Fusarium oxysporum f. sp. lupini at 0.1 ug/ml after 192 hrs relative to control. The following applies: read-out: GI.

For the molecule `CCCCOCCOCCN/C=C1\C(=O)C(O)=C(C(C)C)c2cc(C)c(-c3c(C)cc4c(c3O)/C(=C/NCCOCCOCCCC)C(=O)C(O)=C4C(C)C)c(O)c21`, the “Radial growth inhibition of fungi (Ā) (mm)” value (“Radial growth inhibition” below) is recorded as 13.5 mm in [1]; 23.63 mm in assay [2]; 33.25 mm in assay [3]; 43.63 mm in assay [4]; 14.25 mm in assay [6]; 23.5 mm in assay [7]. Moreover, the “Radial growth inhibition” value in assay [8] came out at 33.88 mm; in assay [9], 44 mm; in assay [11], 15.13 mm; in assay [12] it was 24.63 mm; in assay [13] it was 34.75 mm; in [14] it was 45.13 mm. In addition, the “Radial growth inhibition” value was 16.38 mm in assay [16], 25.63 mm in [17], 36.75 mm in [18] and 49.25 mm in assay [19]. Besides, in [5], the inhibition of growth at 20 µg/mL came to 26.4%. Moreover, the inhibition of growth at 1 µg/mL in assay [10] came out at 25.7%. Moreover, in assay [15], the inhibition of growth at 0.5 µg/mL came to 23.8%. Further, the inhibition of growth at 0.1 µg/mL in assay [20] is 16.9%.

Consider `COCCOCCOCCN/C=C1\C(=O)C(O)=C(C(C)C)c2cc(C)c(-c3c(C)cc4c(c3O)/C(=C/NCCOCCOCCOC)C(=O)C(O)=C4C(C)C)c(O)c21`, for which the “Radial growth inhibition” value in assay [1] was determined as 14.13 mm; in assay [2] it was 24.13 mm; in [3], 34.13 mm; in assay [4], 44 mm; in [6] it was 14.88 mm; in assay [7], 25 mm. For the same molecule, the “Radial growth inhibition” value in assay [8] turned out to be 35.25 mm; in [9], 45.75 mm; in assay [11] it was 16.38 mm; in [12], 25.75 mm; in assay [13] it was 36.88 mm; in assay [14] it was 48.5 mm. The “Radial growth inhibition” value amounted to 16.75 mm in [16], 27 mm in assay [17], 39.25 mm in assay [18] and 51.75 mm in [19]. Moreover, the inhibition of growth at 20 µg/mL in assay [5] worked out at 25.7%. Besides, the inhibition of growth at 1 µg/mL in [10] stood at 22.8%. Besides, the inhibition of growth at 0.5 µg/mL in assay [15] is 18.1%. Moreover, the inhibition of growth at 0.1 µg/mL in [20] came out at 12.7%.

Take `Cc1cc2c(c(O)c1-c1c(C)cc3c(c1O)/C(=C/NCCOCCO)C(=O)C(O)=C3C(C)C)/C(=C/NCCOCCO)C(=O)C(O)=C2C(C)C`: the “Radial growth inhibition” value in [1] was determined as 14.38 mm; in assay [2] it was 24.5 mm; in [3] it was 34.5 mm; in [4], 45.25 mm; in assay [6], 16 mm; in [7] it was 25.75 mm. Further, the “Radial growth inhibition” value is on record as 35.88 mm in assay [8]; 46.25 mm in assay [9]; 17.63 mm in assay [11]; 26.5 mm in assay [12]; 38 mm in [13]; 49.5 mm in assay [14]. For the same molecule, the “Radial growth inhibition” value came out at 18.13 mm in assay [16], 28.5 mm in assay [17], 40.38 mm in [18] and 52.63 mm in assay [19]. Besides, the inhibition of growth at 20 µg/mL in assay [5] was 23.6%. The inhibition of growth at 1 µg/mL in assay [10] came out at 21.9%. In assay [15], the inhibition of growth at 0.5 µg/mL turned out to be 16.5%. Moreover, the inhibition of growth at 0.1 µg/mL in [20] amounted to 11.2%.
